Patent US20250223268A1, “4-Methylsulfonylbenzamide Compound, Preparation Method, Herbicidal Composition And Use” (Jiangsu Flag Chemical Industry Co., Ltd., priority 2022, published 2025)

How the values were obtained:
Experiment in all cases: Greenhouse herbicidal activity assay, post-emergence
Format in all cases: in vivo
Conditions in all cases: Post-emergence test, rate 150 g a.i./hm^2; grade by fresh weight inhibition rate
Cyperus iria = tested on: Cyperus iria
Method in brief: (§1)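 Graded A (≥80%) to E (<20%) by fresh weight inhibition, read 14-21 days after spraying. Plants were pot-grown in a growth chamber and received foliar application at the 3-6 leaf stage, being air-dried and returned to the chamber afterwards.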

Digitaria sanguinalis = tested on: Digitaria sanguinalis
Method in brief: as §1

Echinochloa crusgalli = tested on: Echinochloa crusgalli
Method in brief: as §1

Eclipta prostrata = tested on: Eclipta prostrata
Method in brief: as §1

Leptochloa chinensis = tested on: Leptochloa chinensis
Method in brief: as §1

Structure (SMILES) | Control efficacy grade, Cyperus iria (Cyperus iria) | Control efficacy grade, Digitaria sanguinalis (Digitaria sanguinalis) | Control efficacy grade, Echinochloa crusgalli (Echinochloa crusgalli) | Control efficacy grade, Eclipta prostrata (Eclipta prostrata) | Control efficacy grade, Leptochloa chinensis (Leptochloa chinensis)
CCCC[S+]([O-])c1c(S(C)(=O)=O)ccc(C(=O)Nc2nnc(C)o2)c1Cl (racemic) [Compound 3-12] | A (Fresh weight inhibition rate≥80% to 100%) | A (Fresh weight inhibition rate≥80% to 100%) | A (Fresh weight inhibition rate≥80% to 100%) | A (Fresh weight inhibition rate≥80% to 100%) | A (Fresh weight inhibition rate≥80% to 100%)
CCC(C)Sc1c(S(C)(=O)=O)ccc(C(=O)Nc2nnc(C)o2)c1Cl (racemic) [Compound 3-16] | A (Fresh weight inhibition rate≥80% to 100%) | A (Fresh weight inhibition rate≥80% to 100%) | A (Fresh weight inhibition rate≥80% to 100%) | A (Fresh weight inhibition rate≥80% to 100%) | A (Fresh weight inhibition rate≥80% to 100%)
Cc1nnc(NC(=O)c2ccc(S(C)(=O)=O)c([S+]([O-])CC(C)C)c2Cl)o1 (racemic) [Compound 3-28] | A (Fresh weight inhibition rate≥80% to 100%) | A (Fresh weight inhibition rate≥80% to 100%) | A (Fresh weight inhibition rate≥80% to 100%) | A (Fresh weight inhibition rate≥80% to 100%) | A (Fresh weight inhibition rate≥80% to 100%)
Cc1nnc(NC(=O)c2ccc(S(C)(=O)=O)c([S+]([O-])CC3CC3)c2Cl)o1 (racemic) [Compound 3-38] | A (Fresh weight inhibition rate≥80% to 100%) | A (Fresh weight inhibition rate≥80% to 100%) | A (Fresh weight inhibition rate≥80% to 100%) | A (Fresh weight inhibition rate≥80% to 100%) | A (Fresh weight inhibition rate≥80% to 100%)
Cc1nnc(NC(=O)c2ccc(S(C)(=O)=O)c([S+]([O-])CCC(C)C)c2Cl)o1 (racemic) [Compound 3-53] | A (Fresh weight inhibition rate≥80% to 100%) | A (Fresh weight inhibition rate≥80% to 100%) | B (Fresh weight inhibition rate≥260% to <80%) | A (Fresh weight inhibition rate≥80% to 100%) | A (Fresh weight inhibition rate≥80% to 100%)
Cc1nnc(NC(=O)c2ccc(S(C)(=O)=O)c([S+]([O-])C3CC3)c2Cl)o1 (racemic) [Compound 3-78] | A (Fresh weight inhibition rate≥80% to 100%) | A (Fresh weight inhibition rate≥80% to 100%) | A (Fresh weight inhibition rate≥80% to 100%) | A (Fresh weight inhibition rate≥80% to 100%) | A (Fresh weight inhibition rate≥80% to 100%)
Cc1nnc(NC(=O)c2ccc(S(C)(=O)=O)c([S+]([O-])C3CCC3)c2Cl)o1 (racemic) [Compound 3-83] | A (Fresh weight inhibition rate≥80% to 100%) | A (Fresh weight inhibition rate≥80% to 100%) | A (Fresh weight inhibition rate≥80% to 100%) | A (Fresh weight inhibition rate≥80% to 100%) | A (Fresh weight inhibition rate≥80% to 100%)
Cc1nnc(NC(=O)c2ccc(S(C)(=O)=O)c([S+]([O-])C3CCCC3)c2Cl)o1 (racemic) [Compound 3-88] | A (Fresh weight inhibition rate≥80% to 100%) | A (Fresh weight inhibition rate≥80% to 100%) | A (Fresh weight inhibition rate≥80% to 100%) | A (Fresh weight inhibition rate≥80% to 100%) | A (Fresh weight inhibition rate≥80% to 100%)
Cc1nnc(NC(=O)c2ccc(S(C)(=O)=O)c([S+]([O-])C3CCCCC3)c2Cl)o1 (racemic) [Compound 3-93] | A (Fresh weight inhibition rate≥80% to 100%) | A (Fresh weight inhibition rate≥80% to 100%) | A (Fresh weight inhibition rate≥80% to 100%) | A (Fresh weight inhibition rate≥80% to 100%) | A (Fresh weight inhibition rate≥80% to 100%)
Cc1nnc(NC(=O)c2ccc(S(C)(=O)=O)c([S+]([O-])CC(F)(F)F)c2Cl)o1 (racemic) [Compound 3-98] | A (Fresh weight inhibition rate≥80% to 100%) | A (Fresh weight inhibition rate≥80% to 100%) | A (Fresh weight inhibition rate≥80% to 100%) | A (Fresh weight inhibition rate≥80% to 100%) | A (Fresh weight inhibition rate≥80% to 100%)
Cc1nnc(NC(=O)c2ccc(S(C)(=O)=O)c([S+]([O-])CC(F)F)c2Cl)o1 (racemic) [Compound 3-103] | A (Fresh weight inhibition rate≥80% to 100%) | A (Fresh weight inhibition rate≥80% to 100%) | A (Fresh weight inhibition rate≥80% to 100%) | A (Fresh weight inhibition rate≥80% to 100%) | A (Fresh weight inhibition rate≥80% to 100%)
C=CC[S+]([O-])c1c(S(C)(=O)=O)ccc(C(=O)Nc2nnc(C)o2)c1Cl (racemic) [Compound 3-113] | A (Fresh weight inhibition rate≥80% to 100%) | A (Fresh weight inhibition rate≥80% to 100%) | A (Fresh weight inhibition rate≥80% to 100%) | A (Fresh weight inhibition rate≥80% to 100%) | A (Fresh weight inhibition rate≥80% to 100%)
C=C(C)C[S+]([O-])c1c(S(C)(=O)=O)ccc(C(=O)Nc2nnc(C)o2)c1Cl (racemic) [Compound 3-143] | A (Fresh weight inhibition rate≥80% to 100%) | A (Fresh weight inhibition rate≥80% to 100%) | A (Fresh weight inhibition rate≥80% to 100%) | A (Fresh weight inhibition rate≥80% to 100%) | A (Fresh weight inhibition rate≥80% to 100%)
Cc1nnc(NC(=O)c2ccc(S(C)(=O)=O)c([S+]([O-])CC#N)c2Cl)o1 (racemic) [Compound 3-193] | A (Fresh weight inhibition rate≥80% to 100%) | B (Fresh weight inhibition rate≥260% to <80%) | A (Fresh weight inhibition rate≥80% to 100%) | A (Fresh weight inhibition rate≥80% to 100%) | A (Fresh weight inhibition rate≥80% to 100%)
CC(C)[S+]([O-])c1c(S(C)(=O)=O)ccc(C(=O)Nc2nnco2)c1Cl (racemic) [Compound 3-273] | A (Fresh weight inhibition rate≥80% to 100%) | A (Fresh weight inhibition rate≥80% to 100%) | A (Fresh weight inhibition rate≥80% to 100%) | A (Fresh weight inhibition rate≥80% to 100%) | A (Fresh weight inhibition rate≥80% to 100%)
CCCC[S+]([O-])c1c(S(C)(=O)=O)ccc(C(=O)Nc2nnco2)c1Cl (racemic) [Compound 3-278] | A (Fresh weight inhibition rate≥80% to 100%) | A (Fresh weight inhibition rate≥80% to 100%) | A (Fresh weight inhibition rate≥80% to 100%) | A (Fresh weight inhibition rate≥80% to 100%) | A (Fresh weight inhibition rate≥80% to 100%)
CCC(C)Sc1c(S(C)(=O)=O)ccc(C(=O)Nc2nnco2)c1Cl (racemic) [Compound 3-282] | A (Fresh weight inhibition rate≥80% to 100%) | B (Fresh weight inhibition rate≥260% to <80%) | A (Fresh weight inhibition rate≥80% to 100%) | A (Fresh weight inhibition rate≥80% to 100%) | A (Fresh weight inhibition rate≥80% to 100%)
